Experimental findings from patent US5405958A, “Photochromic spiro(indoline)naphthoxazine compounds” (Transitions Optical, Inc., priority 1992, dated 1995) are described below.

Holding throughout (type): physicochemical
A short description of series [1]: UV spectrophotometer lambda max in diethylene glycol dimethyl ether solution. Conditions: for lambda max compared with compound samples A, B and D (in words): Table 1 values vs. samples A, B and D of Table 2; for LAMBDA MAX: in diethylene glycol dimethyl ether, approximately 0.5 milligrams per milliliter. The method, then: The principal products of Examples 1, 2 and 3 were dissolved in diethylene glycol dimethyl ether. The concentrations of the resulting solutions were approximately 0.5 milligrams per milliliter. Each solution was tested in a UV spectrophotometer to determine its lambda max. The lambda max reported in Table 1 is the wavelength in the ultraviolet range closest to the visible spectrum or in the threshold range, i.e., 390 to 410 nanometers, of the visible spectrum, at which the maximum absorption and activation of the photochromic compound occurs in diethylene glycol dimethyl ether.

A short description of series [2]: Colour change of diethylene glycol dimethyl ether solution on ultraviolet irradiation.
The nature of series [3]: Lambda max in imbibed polymer matrix test squares. Conditions: for LAMBDA MAX: in polymer matrix test squares of diethylene glycol bis(allyl carbonate). The procedure: (§1) These compounds were imbibed by thermal transfer into test squares of a polymeric matrix prepared from a diethylene glycol bis(allyl carbonate) composition by the following procedure: Each photochromic compound was dissolved in toluene to form a 4 weight percent solution of the compound. A piece of No. 4 Whatman filter paper was saturated with the toluene solution of the photochromic compound and allowed to air dry. The dried filter paper was placed on one side of the polymer test square, which measured 1/8 inch (0.3 centimeter)×2 inch (5.1 centimeters)×2 inch (5.1 centimeters). A piece of untreated filter paper was placed on the other side of the polymer test square and the resulting sandwich placed between two plates of flat aluminum metal plates. […] The imbibed test squares were washed with acetone after removal from the oven.
(§2) The Δ OD/min., which represents the sensitivity of the photochromic compound's response to UV light, was measured using photopic filters on the silicon detector. The response of the filtered detector approximated the luminosity curve. The Δ OD was measured over the first five (5) seconds of UV exposure, then expressed on a per minute basis. The saturation optical density (OD) was taken under identical conditions as the Δ OD/min., except UV exposure was continued for 20 minutes. The lambda max reported in Table 2 is the wavelength in the ultraviolet range closest to the visible spectrum or in the threshold range, i.e., 390 to 410 nanometers, of the visible spectrum at which the maximum absorption and activation of the photochromic compound occurs in the polymer matrix test squares.

Series [4] is described as follows: Photochromic response (sensitivity, saturation optical density) of imbibed polymer test squares on optical bench. The note with it: for Δ OD @ SATURATION: UV exposure continued for 20 minutes; for Δ OD/min. SENSITIVITY: first five (5) seconds of UV exposure, expressed per minute, photopic filters, about one sun. The procedure: as §1
(§3) The imbibed polymer test squares were tested for photochromic response rates on an optical bench. The samples were illuminated by a 150 watt Xenon lamp fitted with a copper sulfate bath and a neutral density filter at an intensity of about one sun. A second beam of light provided by a filtered tungsten lamp arranged to pass through the sample area exposed by the UV source was used to monitor changes in transmission of the sample over different wavelength ranges in the visible region of the spectrum. The intensity of the monitoring beam after passing through the sample was measured by means of an IL-1500 radiometer equipped with a silicon detector head and matching filters.
as §2

Series [5] in a line: Bleach rate of imbibed polymer test squares. Conditions: for BLEACH RATE T 1/2: 25.7±0.5° C., after removal of activating light. The method, then:
as §1, §3

As to “1,3,3,4,5(or 1,3,3,5,6,)-pentamethyl-9'-methoxy-carbonyl-8'-acetoxy-spiro[indoline-2,3'-[3H]naphth[2,1-b][1,4]oxazine] [Example 3]”, in series [1], the “lambda max compared with compound samples A, B and D (in words)” value is “relatively high lambda max values”; the “LAMBDA MAX” value was 374. In series [2], the “colour of solution after the ultraviolet light was removed” value was “returned to its original colorless condition”, the “colour of solution before irradiation” value is given as “colorless” and the “colour of solution when irradiated with ultraviolet light” value (from here on “colour of solution when irradiated”) is recorded as “changed to blue”.

As for “1,3,3,4,5(or 1,3,3,5,6,)-pentamethyl-9'-methoxycarbonyl-8'-hydroxy-spiro[indoline-2,3'-[3H]naphth[2,1-b][1,41oxazine] [Example 1]”, in series [1], the “lambda max compared with compound samples A, B and D (in words)” value is “relatively high lambda max values”; the “LAMBDA MAX” value was 403. In addition, in series [2], the “colour of solution after the ultraviolet light was removed” value is “returned to its original slightly colored condition”, the “colour of solution before irradiation” value is “slight yellow cast” and the “colour of solution when irradiated” value is reported as “changed to green”.

Turning to “1,3,3,4,5(or 1,3,3,5,6,)-pentamethyl-9'-methoxycarbonyl-8'-methoxy-spiro[indoline-2,3'-[3H]naphth[2,1-b][1,41oxazine] [Example 2]”, in series [1], the “lambda max compared with compound samples A, B and D (in words)” value is recorded as “relatively high lambda max values”; the “LAMBDA MAX” value worked out at 383. Moreover, in series [2], the “colour of solution after the ultraviolet light was removed” value is “returned to its original colorless condition”, the “colour of solution before irradiation” value was “colorless” and the “colour of solution when irradiated” value is on record as “changed to blue”.

For “1-propyl-3,3,4,5(or 3,3,5,6)-tetramethyl-9'-methoxycarbonyl-8'-acetoxy-spiro[indoline-2,3'-[3H]naphth[2,1-b][1,4]oxazine] [Compound C]”, the “LAMBDA MAX” value in series [3] is recorded as 374. Also, the “absorption maxima in the UV spectrum compared with compounds A, B and D (in words)” value in series [3] (polymer test squares) was “unexpectedly higher than compounds A, B and D”. Moreover, in series [4], the “Δ OD @ SATURATION” value is listed as 0.42 Δ OD and the “Δ OD/min. SENSITIVITY” value is 0.46 Δ OD/min. For the same molecule, in series [4] (polymer test squares), the “optical density at saturation compared with the other compounds (in words)” value was “higher optical density at saturation” and the “sensitivity compared with the other compounds (in words)” value was “improved sensitivity”. In addition, in series [5], the “BLEACH RATE T 1/2” value is 136 s. Moreover, the “bleach rate (in words)” value in series [5] (polymer test squares) is reported as “acceptable bleach rate”.

Regarding “1propyl-3,3,4,5(or 3,3,5,6)tetramethyl-spiro[indoline2,3[3H]naphth[2,1b][1,4]oxazine]”, in series [3], the “LAMBDA MAX” value was 346. In addition, in series [4], the “Δ OD @ SATURATION” value was 0.11 Δ OD and the “Δ OD/min. SENSITIVITY” value is on record as 0.21 Δ OD/min. For the same molecule, the “BLEACH RATE T 1/2” value in series [5] is 47 s.

As to `CCCN1c2cc(C)c(C)cc2C(C)(C)C12C=Nc1c(ccc3ccc(OC)cc13)O2` (centres unmarked) [A, 1propyl-3,3,5,6-tetramethyl-9methoxy-spiro[indoline2,3[3H]naphth[2,1b][1,]oxazine]], the “LAMBDA MAX” value in series [3] is on record as 336. In series [4], the “Δ OD @ SATURATION” value is listed as 0.11 Δ OD and the “Δ OD/min. SENSITIVITY” value is given as 0.15 Δ OD/min. The “BLEACH RATE T 1/2” value in series [5] amounted to 70 s.

As to `CCCN1c2cc(C)c(C)cc2C(C)(C)C12C=Nc1c(ccc3ncccc13)O2` (centres unmarked) [B, 1propyl-3,3,5,6-tetramethyl-spiro[indoline2,3[3H]pyrido[3,2f][1,4]benzoxaine]], in series [3], the “LAMBDA MAX” value was 350. In series [4], the “Δ OD @ SATURATION” value is on record as 0.36 Δ OD and the “Δ OD/min. SENSITIVITY” value was 0.44 Δ OD/min. In addition, in series [5], the “BLEACH RATE T 1/2” value was 69 s.
